Laboratory results as given in article PMC2746281 (PLoS ONE, 2009).

Key:
Jak1 = biological target: T1, Jak1 (Homo sapiens, UniProt P23458); test: Ba/F3 cell proliferation (WST-1), Jak1; conditions: Ba/F3 cells expressing the enzyme, read-out: Cell-based assay IC50, Jak1
T1 construct: expressed in transfected cells; host or cells: Ba/F3

Alk = biological target: T2, Alk (Homo sapiens, UniProt Q9UM73); test: Ba/F3 cell proliferation (WST-1), Alk; conditions: Ba/F3 cells expressing the enzyme, read-out: Cell-based assay IC50, Alk
T2 construct: expressed in transfected cells; host or cells: Ba/F3

c-Fms = biological target: T3, c-Fms (Homo sapiens, UniProt P07333); test: Ba/F3 cell proliferation (WST-1), c-Fms; conditions: Ba/F3 cells expressing the enzyme, read-out: Cell-based assay IC50, c-Fms
T3 construct: expressed in transfected cells; host or cells: Ba/F3 (general description; not repeated for this kinase)

PDGFRβ = PDGFRβ (Homo sapiens, UniProt P09619); test: Recombinant kinase ELISA assay, PDGFRβ; format: biochemical; design: PDGF receptor β (residues 554–1106; BC032224); 6xHN (N); made in house; host or cells: baculovirus, Sf9 insect cells; conditions: recombinant human enzyme; ELISA-based assay, poly(Glu,Tyr 4:1) substrate
Method: (§1) Full details for the generation of recombinant human KIT intracellular domain and other protein kinases (including Lyn, platelet derived growth factor receptor β, epidermal growth factor receptor, fibroblast growth factor receptor 1, Src, HCK, PYK, FES, Btk, Bmx, c-Ret, c-Fms, Syk, and c-Met) are provided in the Supplemental Methods (see Supporting Information; Methods S1). Experiments on ABL1, Akt1, protein kinase C-α, insulin-like growth factor receptor 1, and Pim1 were carried out by Proqinase (Germany). All other recombinant protein kinases were performed in-house using an enzyme-linked immunoassay; experimental details are provided in the Supplemental Methods (see Supporting Information; Methods S1).

CBMC = CBMC cell viability; format: cell-based, human; conditions: incubation of CBMC for up to 9 hours
[1] = biological target: Insulin-like growth factor-I receptor (Homo sapiens, UniProt P08069); test: Ba/F3 cell proliferation (WST-1), IGF-I receptor; design: expressed in transfected cells; host or cells: Ba/F3 (general description; not repeated for this kinase); conditions: Ba/F3 cells expressing the enzyme, read-out: Cell-based assay IC50, Insulin-like growth factor-I receptor
mouse lymphoma = test: Mouse lymphoma assay; format: cell-based; conditions: our unpublished results
[2] = biological target: T4, Proline-rich Tyrosine kinase (FAK2/PYK2) (Homo sapiens, UniProt Q14289); test: Recombinant kinase ELISA assay, PYK2; format: biochemical; conditions: recombinant human enzyme; ELISA-based assay, poly(Glu,Tyr 4:1) substrate
T4 construct: PYK2 (2-1006; BC042599); 6xHN (N); made in house; host or cells: baculovirus, Sf9 insect cells
Method: as §1
The sequences encoding PDGF receptor β (residues 554–1106; GenBank accession no. BC032224), Lyn B (2–583; accession no. BC059394), fibroblast growth factor receptor 1 (572–959; accession no. BC018128), Src (2–536; accession no. BC011566), Btk (2–659; accession no. BC109079), Bmx (2–675; accession no. BC016652), c-Ret (713–1114; accession no. BC004257), c-Fms (538–972; BC047531), Syk (2–612; BC011399), Hck (2-526; accession no. BC014435), Fes (2-822; accession no. BC035357), PYK2 (2-1006; accession no. BC042599) and c-Met (949–1398; accession no. lifeseq3489592) were amplified by PCR from IMAGE cDNA clones purchased from Openbiosystems. […]

c-Ret = biological target: T5, c-Ret (Homo sapiens, UniProt P07949); test: Ba/F3 cell proliferation (WST-1), c-Ret; conditions: Ba/F3 cells expressing the enzyme, read-out: Cell-based assay IC50, c-Ret
T5 construct: expressed in transfected cells; host or cells: Ba/F3 (general description; not repeated for this kinase)

HMC-1α155 cells = test: Mastocytoma cell line proliferation (WST-1), HMC-1α155; format: cell-based; conditions: Homo sapiens, 48 h; 2 days; KIT juxtamembrane mutation
Method: (B) western blotting analysis of HMC-1α155 tyrosine phosphorylation. […] (D) Western blotting analysis of BMMC tyrosine phosphorylation. Cell proliferation was assessed by WST-1 colorimetric assay. […] MW = molecular weight.

Flt3 = Flt3 (Homo sapiens, UniProt P36888); test: Ba/F3 cell proliferation (WST-1), Flt3; conditions: Ba/F3 cells expressing the enzyme, read-out: Cell-based assay IC50, Flt3
[3] = tested on: cultured human lymphocytes; test: Chromosome aberration test in cultured human lymphocytes; format: cell-based; conditions: our unpublished results
Akt1 = biological target: T6, Akt1 (Homo sapiens, UniProt P31749); test: Recombinant kinase screen (Proqinase), Akt1; format: biochemical; conditions: recombinant human enzyme; single experiment, kinase screen by Proqinase
T6 construct: purchased Proqinase (Germany)
Method: as §1

[4] = tested on: murine bone marrow mast cell (BMMC); test: Transwell migration of BMMC in response to rmSCF; format: cell-based; conditions: Mus musculus, 4 hours, read-out: inhibition of migration of SCF-stimulated BMMCs relative to the control
Method: Migration of murine BMMCs was evaluated using a transwell migration assay [35]. […] Filters were then placed in wells containing 600 µL of chemotaxis buffer supplemented with or without 10 ng/mL of rmSCF, for stimulated or unstimulated BMMCs, respectively. After 4 hours incubation at 37°C in 5% CO2, cells from the bottom chamber were resuspended and counted using a FACS Scan over 20 seconds. All assays were performed in triplicate and counts were repeated twice for each well. For tyrosine kinase inhibitor treatment, 1×10^7 mast cells were pretreated for 1.5 hours at 37°C in complete medium (OPTI MEM, 10% foetal calf serum (FCS), 1% antibiotics and 2-mercaptoethanol 5×10^−5 M, 10 ng/ml rIL3) either with 1 µM of inhibitor or an equivalent volume of DMSO.

VEGFR1 = VEGFR1 (Homo sapiens, UniProt P17948); test: Recombinant kinase ELISA assay, VEGFR1; format: biochemical; conditions: recombinant human enzyme; ELISA-based assay, poly(Glu,Tyr 4:1) substrate
Method: as §1
A 96-well microtitre plate (Immulon 2HB; ThermoLifeScience, Finland) was coated overnight with 0.25 mg/ml poly(Glu,Tyr 4:1), rinsed twice with 250 µl of washing buffer (10 mM phosphate-buffered saline [pH 7.4] and 0.05% Tween 20) and dried for 2 hours at room temperature. […] Reactions were initiated upon introduction of the enzyme and terminated with the addition of one reaction volume (50 μl) of 100 mM EDTA per 5 M urea mix. […] The final reaction product was quantified by spectrophotometry at 450 nm.

T5 sequence (P07949 29-1114): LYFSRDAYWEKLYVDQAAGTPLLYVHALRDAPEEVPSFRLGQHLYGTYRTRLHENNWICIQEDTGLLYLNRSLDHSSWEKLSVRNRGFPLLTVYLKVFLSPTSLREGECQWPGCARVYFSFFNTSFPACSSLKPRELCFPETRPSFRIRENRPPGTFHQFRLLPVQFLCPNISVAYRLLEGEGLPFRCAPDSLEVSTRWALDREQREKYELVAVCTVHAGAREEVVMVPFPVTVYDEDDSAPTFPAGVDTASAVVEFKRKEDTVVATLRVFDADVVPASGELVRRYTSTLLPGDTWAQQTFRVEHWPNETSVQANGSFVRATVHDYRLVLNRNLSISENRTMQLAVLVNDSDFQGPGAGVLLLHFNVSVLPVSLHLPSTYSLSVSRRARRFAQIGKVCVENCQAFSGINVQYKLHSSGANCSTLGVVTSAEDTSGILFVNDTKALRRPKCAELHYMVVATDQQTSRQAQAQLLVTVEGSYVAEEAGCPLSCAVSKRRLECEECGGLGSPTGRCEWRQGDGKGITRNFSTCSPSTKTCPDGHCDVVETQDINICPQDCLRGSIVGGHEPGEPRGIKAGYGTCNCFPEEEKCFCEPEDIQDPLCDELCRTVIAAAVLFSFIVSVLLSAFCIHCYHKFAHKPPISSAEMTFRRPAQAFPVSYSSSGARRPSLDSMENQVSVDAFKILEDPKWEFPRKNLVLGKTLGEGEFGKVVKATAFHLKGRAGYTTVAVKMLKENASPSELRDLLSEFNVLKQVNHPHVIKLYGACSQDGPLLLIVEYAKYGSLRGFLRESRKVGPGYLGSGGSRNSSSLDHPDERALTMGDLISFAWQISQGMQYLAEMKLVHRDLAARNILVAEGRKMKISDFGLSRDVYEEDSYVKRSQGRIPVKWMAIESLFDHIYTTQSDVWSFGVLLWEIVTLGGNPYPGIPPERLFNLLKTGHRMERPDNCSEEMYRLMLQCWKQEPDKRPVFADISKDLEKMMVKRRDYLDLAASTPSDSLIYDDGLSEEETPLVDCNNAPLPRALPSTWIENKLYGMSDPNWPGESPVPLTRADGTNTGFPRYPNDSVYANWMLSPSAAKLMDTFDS
T1 sequence (P23458 whole entry, species assumed): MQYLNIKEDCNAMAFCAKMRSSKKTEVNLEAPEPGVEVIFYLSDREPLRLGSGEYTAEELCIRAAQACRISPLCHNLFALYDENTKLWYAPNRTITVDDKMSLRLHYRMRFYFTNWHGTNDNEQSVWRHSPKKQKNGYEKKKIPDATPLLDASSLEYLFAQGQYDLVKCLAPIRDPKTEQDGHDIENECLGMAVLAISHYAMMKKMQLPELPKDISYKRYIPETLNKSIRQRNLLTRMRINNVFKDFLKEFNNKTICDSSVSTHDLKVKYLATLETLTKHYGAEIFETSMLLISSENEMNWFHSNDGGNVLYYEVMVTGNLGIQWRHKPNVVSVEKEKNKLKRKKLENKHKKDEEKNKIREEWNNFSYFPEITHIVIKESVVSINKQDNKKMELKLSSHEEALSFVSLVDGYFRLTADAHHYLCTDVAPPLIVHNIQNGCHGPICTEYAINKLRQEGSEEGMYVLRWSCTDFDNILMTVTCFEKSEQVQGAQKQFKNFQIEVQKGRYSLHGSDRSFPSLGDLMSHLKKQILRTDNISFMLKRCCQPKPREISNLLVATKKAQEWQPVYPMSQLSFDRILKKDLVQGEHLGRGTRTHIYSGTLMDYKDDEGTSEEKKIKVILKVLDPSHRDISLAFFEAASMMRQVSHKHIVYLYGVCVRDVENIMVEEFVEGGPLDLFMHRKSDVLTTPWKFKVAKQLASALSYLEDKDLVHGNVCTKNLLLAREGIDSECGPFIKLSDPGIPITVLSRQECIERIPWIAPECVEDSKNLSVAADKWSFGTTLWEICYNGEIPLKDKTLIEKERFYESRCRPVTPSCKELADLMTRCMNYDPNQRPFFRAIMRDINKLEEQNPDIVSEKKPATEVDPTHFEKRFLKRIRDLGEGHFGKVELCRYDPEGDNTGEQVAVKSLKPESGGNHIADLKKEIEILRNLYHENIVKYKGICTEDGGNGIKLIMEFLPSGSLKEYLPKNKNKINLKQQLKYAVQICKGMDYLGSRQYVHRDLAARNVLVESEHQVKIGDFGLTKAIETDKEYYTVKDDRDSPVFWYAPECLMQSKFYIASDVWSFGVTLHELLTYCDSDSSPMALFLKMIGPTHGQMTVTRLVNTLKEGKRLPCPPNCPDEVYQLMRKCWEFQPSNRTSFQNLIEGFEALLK
VEGFR1, sequence (P17948 27-1338): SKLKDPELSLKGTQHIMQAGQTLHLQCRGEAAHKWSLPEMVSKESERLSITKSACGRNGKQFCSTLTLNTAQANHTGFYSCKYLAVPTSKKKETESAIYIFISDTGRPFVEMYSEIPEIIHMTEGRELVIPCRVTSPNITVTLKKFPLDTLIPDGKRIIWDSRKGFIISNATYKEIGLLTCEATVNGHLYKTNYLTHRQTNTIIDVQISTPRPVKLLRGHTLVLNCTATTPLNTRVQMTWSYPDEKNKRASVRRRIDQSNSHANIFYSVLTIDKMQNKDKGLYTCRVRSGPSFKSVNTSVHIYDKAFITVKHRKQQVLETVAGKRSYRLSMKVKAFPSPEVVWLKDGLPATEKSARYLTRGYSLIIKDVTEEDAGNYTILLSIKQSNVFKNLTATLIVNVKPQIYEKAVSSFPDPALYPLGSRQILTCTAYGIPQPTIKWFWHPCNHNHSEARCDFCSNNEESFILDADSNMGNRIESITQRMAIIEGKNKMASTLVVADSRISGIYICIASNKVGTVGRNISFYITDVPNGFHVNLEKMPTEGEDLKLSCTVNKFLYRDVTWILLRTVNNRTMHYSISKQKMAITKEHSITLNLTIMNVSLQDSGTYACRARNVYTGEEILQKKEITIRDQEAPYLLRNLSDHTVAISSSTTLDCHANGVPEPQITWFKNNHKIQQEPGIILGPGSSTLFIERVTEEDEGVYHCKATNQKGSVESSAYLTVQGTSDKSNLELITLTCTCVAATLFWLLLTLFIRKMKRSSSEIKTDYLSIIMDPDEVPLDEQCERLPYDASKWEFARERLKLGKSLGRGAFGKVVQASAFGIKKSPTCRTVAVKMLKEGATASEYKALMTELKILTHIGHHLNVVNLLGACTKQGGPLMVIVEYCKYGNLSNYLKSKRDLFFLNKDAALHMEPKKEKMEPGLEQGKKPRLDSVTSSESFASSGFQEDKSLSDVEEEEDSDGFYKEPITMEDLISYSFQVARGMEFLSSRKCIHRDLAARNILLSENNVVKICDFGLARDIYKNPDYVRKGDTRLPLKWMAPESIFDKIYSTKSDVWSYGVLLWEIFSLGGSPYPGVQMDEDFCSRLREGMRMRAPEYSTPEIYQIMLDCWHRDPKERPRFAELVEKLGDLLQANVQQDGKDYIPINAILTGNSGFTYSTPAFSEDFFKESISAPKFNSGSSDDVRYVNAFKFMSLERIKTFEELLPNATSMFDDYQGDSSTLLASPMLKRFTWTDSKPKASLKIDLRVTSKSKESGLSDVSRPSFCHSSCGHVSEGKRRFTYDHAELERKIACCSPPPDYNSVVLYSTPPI
T3 sequence (P07333 20-972): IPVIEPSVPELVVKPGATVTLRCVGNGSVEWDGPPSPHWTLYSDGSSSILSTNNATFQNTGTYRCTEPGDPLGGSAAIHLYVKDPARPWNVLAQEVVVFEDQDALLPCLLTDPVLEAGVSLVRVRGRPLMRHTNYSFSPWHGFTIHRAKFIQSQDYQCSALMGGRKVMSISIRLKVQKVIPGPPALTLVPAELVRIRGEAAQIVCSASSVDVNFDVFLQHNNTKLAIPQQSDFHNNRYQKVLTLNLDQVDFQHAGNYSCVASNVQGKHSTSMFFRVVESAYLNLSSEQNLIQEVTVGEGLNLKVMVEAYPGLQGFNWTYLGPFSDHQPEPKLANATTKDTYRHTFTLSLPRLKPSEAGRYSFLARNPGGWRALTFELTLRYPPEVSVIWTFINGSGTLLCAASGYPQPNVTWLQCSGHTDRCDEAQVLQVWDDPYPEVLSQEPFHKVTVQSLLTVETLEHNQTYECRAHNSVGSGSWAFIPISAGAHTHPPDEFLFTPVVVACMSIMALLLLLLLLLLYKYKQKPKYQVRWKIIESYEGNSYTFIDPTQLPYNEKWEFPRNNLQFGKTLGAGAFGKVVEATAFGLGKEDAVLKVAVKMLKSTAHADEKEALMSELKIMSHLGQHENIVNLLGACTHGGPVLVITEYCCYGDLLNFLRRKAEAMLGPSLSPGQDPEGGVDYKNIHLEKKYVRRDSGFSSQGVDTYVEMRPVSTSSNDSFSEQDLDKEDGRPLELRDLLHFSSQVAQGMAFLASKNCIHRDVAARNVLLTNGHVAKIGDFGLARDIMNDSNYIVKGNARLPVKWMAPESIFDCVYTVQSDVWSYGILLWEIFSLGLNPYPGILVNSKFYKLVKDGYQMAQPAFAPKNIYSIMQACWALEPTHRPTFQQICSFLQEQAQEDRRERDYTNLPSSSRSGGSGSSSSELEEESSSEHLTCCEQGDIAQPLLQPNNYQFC
T6 sequence (P31749 whole entry): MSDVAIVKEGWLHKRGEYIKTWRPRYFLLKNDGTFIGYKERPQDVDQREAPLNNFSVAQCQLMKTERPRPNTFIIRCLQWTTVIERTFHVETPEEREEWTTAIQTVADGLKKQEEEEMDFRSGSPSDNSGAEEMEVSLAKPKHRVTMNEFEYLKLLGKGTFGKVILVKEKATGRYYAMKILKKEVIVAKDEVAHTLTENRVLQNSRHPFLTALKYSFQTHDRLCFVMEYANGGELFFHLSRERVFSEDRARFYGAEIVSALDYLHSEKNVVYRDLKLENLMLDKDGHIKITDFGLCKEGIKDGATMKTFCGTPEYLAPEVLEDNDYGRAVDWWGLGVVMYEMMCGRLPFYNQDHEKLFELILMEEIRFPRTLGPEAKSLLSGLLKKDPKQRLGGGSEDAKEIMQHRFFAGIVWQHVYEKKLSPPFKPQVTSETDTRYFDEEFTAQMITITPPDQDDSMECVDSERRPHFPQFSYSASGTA

CS(=O)(=O)O.CS(=O)(=O)O.Cc1ccc(NC(=O)c2ccc(CN3CCN(C)CC3)cc2)cc1Nc1nc(-c2cccnc2)cs1 [masitinib, 4-(4-methylpiperazin-1-ylmethyl)-N-[4-methyl-3-(4-pyridin-3ylthiazol-2-ylamino)phenyl]benzamide-mesylate methane sulfonic acid salt]
IC50 (Jak1): 8 ± 1.4 µM
IC50 (Alk): 9 ± 0.18 µM
IC50 (c-Fms): 1 ± 0.03 µM
IC50 (PDGFRβ): 0.8 ± 0.12 µM
effect on cell viability (CBMC): no affect on cell viability
IC50 [1]: 10 ± 0.67 µM
mutagenicity in a mouse lymphoma assay (mouse lymphoma): not mutagenic
IC50 [2]: > 10 µM
IC50 (c-Ret): 8 ± 1.2 µM
IC50 (HMC-1α155 cells): ~0.01 µM
IC50 (Flt3): 5 ± 2 µM
chromosome aberrations [3]: does not cause chromosome aberrations
IC50 (Akt1): > 10 µM
inhibition at 1 µM [4]: ~79.6%
IC50 (VEGFR1): > 10 µM
